In US12264159B2, “Functionalized heterocycles as antiviral agents” (Enanta Pharmaceuticals, Inc., priority 2018, dated 2025):

Key:
[1] = test system: HBV in 2.2.15 cells; experiment: 2.2.15 cells: viral product in cell lysates quantified via quantitative real time PCR; format: cell-based, hepatitis B virus (HBV); settings: Hepatitis B virus, 120 h, day 5 post treatment, 50% reduction of viral product vs no drug controls, readout (qPCR, HBsAg or HBeAg) not specified for the column
Protocol: 2.2.15 cells are passaged upon attaining confluency in DMEM/F12 media in the presence of 10% FBS, Penn/Strep, and 250 ug/mL G418. Novel compounds are 5 fold serially diluted in DMSO and added to 96 well plates containing 35,000 cells/well at a 1:200 dilution so that the final concentration of DMSO is 0.5%. On day 5, post treatment cell lysates and supernatants are harvested for analysis.
Cells are lysed using Agilent Sidestep Lysis buffer, diluted 1:100 and quantified via quantitative real time PCR. Commercially available ELISA kits are used to quantitate the viral proteins HBsAg (Alpco) or HBeAg (US Biological) by following the manufacturer's recommended protocol after diluting samples to match the linear range of their respective assays. Irrespective of readout, compound concentrations that reduce viral product accumulation in the cell lysates or supernatants by 50% relative to no drug controls (EC50) are reported; EC50 ranges are as follows: A<0.1 μM; B 0.2-1 μM; C>1 μM.

[2] = Compound induced cellular toxicity in HepG2 cells, ATPlite 1Step; format: cell-based; settings: human, three days exposure, 50% reduction of total ATP vs no drug controls
Protocol: At day 3, post seeding cells are treated with ATPlite 1Step according to the manufacturer's instructions.

SMILES	EC50 [1]	CC50 at 3 days [2]
CC(C)(C)[C@@H]1Cn2ncc(-c3cccc(F)c3)c2-c2cc(=O)c(C(=O)O)cn21 [Example 103, (R)-6-(tert-butyl)-1-(3-fluorophenyl)-10-oxo-5,6-dihydro-10H-pyrazolo[1,5-a]pyrido[2,1-c]pyrazine-9-carboxylic acid]	< 100 nM	> 25000 nM
CC(C)[C@@H]1Cn2nc(C3CC3)c(-c3ccccc3F)c2-c2cc(=O)c(C(=O)O)cn21 [Example 129, (R)-2-cyclopropyl-1-(2-fluorophenyl)-6-isopropyl-10-oxo-5,6-dihydro-10H-pyrazolo[1,5-a]pyrido[2,1-c]pyrazine-9-carboxylic acid]	< 100 nM	> 25000 nM
CC(C)[C@@H]1Cn2nc(C3CC3)c(-c3ccco3)c2-c2cc(=O)c(C(=O)O)cn21 [Example 136, (R)-2-cyclopropyl-1-(furan-2-yl)-6-isopropyl-10-oxo-5,6-dihydro-10H-pyrazolo[1,5-a]pyrido[2,1-c]pyrazine-9-carboxylic acid]	< 100 nM	> 25000 nM
CC(C)(C)[C@@H]1Cn2nc(-c3ccc4c(c3F)OCO4)cc2-c2cc(=O)c(C(=O)O)cn21 [Example 55, (R)-6-(tert-butyl)-2-(4-fluorobenzo[d][1,3]dioxol-5-yl)-10-oxo-5,6-dihydro-10H-pyrazolo[1,5-a]pyrido[2,2-c]pyrazine-12-carboxylic acid]	< 100 nM	> 25000 nM
CC(C)(C)[C@@H]1Cn2nc(-c3ccccc3C(F)F)cc2-c2cc(=O)c(C(=O)O)cn21 [Example 85]	200 to 1000 nM	> 25000 nM
COc1ccccc1-c1cc2n(n1)C[C@@H](C(C)(C)C)n1cc(C(=O)O)c(=O)cc1-2 [Example 12]	< 100 nM	> 25000 nM
CCOc1c(F)cccc1-c1cc2n(n1)C[C@@H](C(C)(C)C)n1cc(C(=O)O)c(=O)cc1-2 [Example 71, (R)-6-(tert-butyl)-2-(2-ethoxy-3-fluorophenyl)-10-oxo-5,6-dihydro-10H-pyrazolo[1,5-a]pyrido[2,2-c]pyrazine-12-carboxylic acid]	< 100 nM	> 25000 nM
Cc1ccc(-c2cc3n(n2)C[C@@H](C(C)(C)C)n2cc(C(=O)O)c(=O)cc2-3)cc1 [Example 20, (R)-6-(tert-butyl)-10-oxo-2-(p-tolyl)-5,6-dihydro-10H-pyrazolo[1,5-a]pyrido[2,2-c]pyrazine-12-carboxylic acid]	< 100 nM	> 25000 nM
CC(C)(C)[C@@H]1Cn2nc(-c3cnc(NC4CC4)nc3)cc2-c2cc(=O)c(C(=O)O)cn21 [Example 15, (R)-6-(tert-butyl)-2-(2-(cyclopropylamino)pyrimidin-5-yl)-10-oxo-5,6-dihydro-10H-pyrazolo[1,5-a]pyrido[2,2-c]pyrazine-12-carboxylic acid]	< 100 nM	> 25000 nM
CC(C)(C)[C@@H]1Cn2nc(-c3ccc(C(F)(F)F)cc3)cc2-c2cc(=O)c(C(=O)O)cn21 [Example 9, (R)-6-(tert-butyl)-10-oxo-2-(4-(trifluoromethyl)phenyl)-5,6-dihydro-10H-pyrazolo[1,5-a]pyrido[2,2-c]pyrazine-12-carboxylic acid]	< 100 nM	> 25000 nM
Cc1ccccc1-c1cnn2c1-c1cc(=O)c(C(=O)O)cn1[C@H](C(C)(C)C)C2 [Example 127, (R)-6-(tert-butyl)-10-oxo-1-(o-tolyl)-5,6-dihydro-10H-pyrazolo[1,5-a]pyrido[2,1-c]pyrazine-9-carboxylic acid]	< 100 nM	> 25000 nM
CCOc1cccc(F)c1-c1cc2n(n1)C[C@@H](C(C)(C)C)n1cc(C(=O)O)c(=O)cc1-2 [Example 74, (R)-6-(tert-butyl)-2-(2-ethoxy-6-fluorophenyl)-10-oxo-5,6-dihydro-10H-pyrazolo[1,5-a]pyrido[2,2-c]pyrazine-12-carboxylic acid]	< 100 nM	> 25000 nM
CC(C)(C)[C@@H]1Cn2nc(-c3cc(F)c(F)cc3N)cc2-c2cc(=O)c(C(=O)O)cn21 [Example 64, (R)-2-(2-amino-4,5-difluorophenyl)-6-(tert-butyl)-10-oxo-5,6-dihydro-10H-pyrazolo[1,5-a]pyrido[2,2-c]pyrazine-12-carboxylic acid]	< 100 nM	> 25000 nM
COc1ccc(OCc2ccccc2)cc1-c1cc2n(n1)C[C@@H](C(C)(C)C)n1cc(C(=O)O)c(=O)cc1-2 [Example 36, (R)-2-(5-(benzyloxy)-2-methoxyphenyl)-6-(tert-butyl)-10-oxo-5,6-dihydro-10H-pyrazolo[1,5-a]pyrido[2,2-c]pyrazine-12-carboxylic acid]	< 100 nM	> 25000 nM
CC(C)(C)[C@@H]1Cn2nc(C3CC3)c(-c3ccccc3)c2-c2cc(=O)c(C(=O)O)cn21 [Example 149, (R)-6-(tert-butyl)-2-cyclopropyl-10-oxo-1-phenyl-5,6-dihydro-10H-pyrazolo[1,5-a]pyrido[2,1-c]pyrazine-9-carboxylic acid]	< 100 nM	> 25000 nM
CC(C)(C)[C@@H]1Cn2nc(-c3ccc4c(c3)OCCO4)cc2-c2cc(=O)c(C(=O)O)cn21 [Example 18, (R)-6-(tert-butyl)-2-(2,3-dihydrobenzo[b][1,4]dioxin-6-yl)-10-oxo-5,6-dihydro-10H-pyrazolo[1,5-a]pyrido[2,2-c]pyrazine-12-carboxylic acid]	< 100 nM	> 25000 nM
CC(C)(C)[C@@H]1Cn2ncc(-c3cncs3)c2-c2cc(=O)c(C(=O)O)cn21 [Example 106, (R)-6-(tert-butyl)-10-oxo-1-(thiazol-5-yl)-5,6-dihydro-10H-pyrazolo[1,5-a]pyrido[2,1-c]pyrazine-9-carboxylic acid]	< 100 nM	–
O=C(O)c1cn2c(cc1=O)-c1c(-c3ccc(F)cc3)c(-c3ccc(F)cc3)nn1CC2 [Example 200, 1,2-bis(4-fluorophenyl)-10-oxo-5,6-dihydro-10H-pyrazolo[1,5-a]pyrido[2,1-c]pyrazine-9-carboxylic acid]	< 100 nM	–
CC(C)(C)[C@@H]1Cn2ncc(-c3cccnc3)c2-c2cc(=O)c(C(=O)O)cn21 [Example 118, (R)-6-(tert-butyl)-10-oxo-1-(pyridin-3-yl)-5,6-dihydro-10H-pyrazolo[1,5-a]pyrido[2,1-c]pyrazine-9-carboxylic acid]	< 100 nM	–
CC(C)[C@@H]1Cn2nc(-c3cccnc3)c(-c3cccnc3)c2-c2c(F)c(=O)c(C(=O)O)cn21 [Example 189, (R)-11-fluoro-6-isopropyl-10-oxo-1,2-di(pyridin-3-yl)-5,6-dihydro-10H-pyrazolo[1,5-a]pyrido[2,1-c]pyrazine-9-carboxylic acid]	200 to 1000 nM	–
CC(C)[C@@H]1Cn2nc(C3CC3)c(-c3cnco3)c2-c2cc(=O)c(C(=O)O)cn21 [Example 139, (R)-2-cyclopropyl-6-isopropyl-1-(oxazol-5-yl)-10-oxo-5,6-dihydro-10H-pyrazolo[1,5-a]pyrido[2,1-c]pyrazine-9-carboxylic acid]	200 to 1000 nM	–
CC(C)(C)[C@@H]1Cn2ncc(-c3ccccc3C(F)(F)F)c2-c2cc(=O)c(C(=O)O)cn21 [Example 121, (R)-6-(tert-butyl)-10-oxo-1-(2-(trifluoromethyl)phenyl)-5,6-dihydro-10H-pyrazolo[1,5-a]pyrido[2,1-c]pyrazine-9-carboxylic acid]	> 1000 nM	–
